Assay results from paper PMC11558822, “Myc 9aaTAD activation domain binds to mediator of transcription with superior high affinity” (Molecular Medicine, 2024).
Residues, ends and D or L forms follow the SMILES beside them. No end group written: not given here. *: point of attachment. Biotin = O=C1N[C@H]2[C@H](CS[C@H]2CCCCC(=O)*)N1

Key:
[1] = target: T1, KIX domain of CBP (Homo sapiens, UniProt Q92793); assay: Bio-layer interferometry (BLI) of immobilized 9aaTAD peptides with KIX domain; format: binding; settings: for Kd: BLI Octet RED96e, biotinylated peptide on streptavidin SA biosensors, KIX 0.31-5.0 μM, 20 mM sodium phosphate pH 6.0, 50 mM NaCl, 30 °C, steady-state 1:1 fit, average of pentaplicate, read-out: KD(apparent)
T1 construct: GST (N, cleaved yes); His6 (N, cleaved yes); made in house
Method: Bio-layer interferometry on Octet RED96e (ForteBio) was used for the analysis of interaction between KIX domain and proposed activation domains. All experiments were performed at 30 °C at 1000 rpm shaking. Streptavidin-bearing SA biosensors (ForteBio) were immersed for 300 s into the assay buffer (20 mM sodium phosphate pH 6.0, 50 mM NaCl) containing 60 μM biotinylated MLL, MYC or NMY peptide, respectively. After subsequent wash in the assay buffer, the final steady response of ligand reached 0.6–0.8 nm. Parallel blank sensor was treated the same way with pure assay buffer being used instead of biotinylated peptide solution in the immobilization step. For the binding assay, all sensors were used in parallel applying the following procedure: 120 s baseline in the assay buffer, 180 s association in the assay buffer containing increasing concentration of KIX domain for each cycle (0.31, 0.63, 1.25, 2.5 and 5.0 μM), 240 s dissociation in the assay buffer and 3 repetitions of 30 s regeneration in 50 mM NaOH followed by 30 s assay buffer wash. Each binding experiment was performed in pentaplicate and the data were processed using Data Analysis 11.1 evaluation SW (ForteBio). Obtained binding curves were blank-subtracted and fitted by a 1:1 binding model using steady state analysis. Final KD (apparent) values were calculated as an average of all measurements.

[2] = tested on: lacZ reporter driven by the lexA operator; assay: One hybrid transactivation (β-galactosidase reporter) assay with LexA hybrids in yeast strain L40; format: cell-based, Saccharomyces cerevisiae; settings: for ß-Gal: raw β-galactosidase activity; for Reporter activation (average value in %): β-galactosidase activity of LexA hybrid, % of positive control p53 construct 6p53 set to 100%, mean ± SD, n = 3; for normalized value in %: β-galactosidase, % of 6p53 mean; for activation function (times): one hybrid assay, presence versus absence of 9aaTAD (region 100–108) in the construct
[3] = replicate 1 (first sample of the construct)
[4] = replicate 2 (second sample of the construct)
[5] = replicate 3 (third sample of the construct)

T1 sequence (Q92793 587-666 limits assumed): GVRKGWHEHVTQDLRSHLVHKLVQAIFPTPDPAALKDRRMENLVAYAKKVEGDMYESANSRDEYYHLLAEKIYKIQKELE

| Compound | Kd [1] [nM] | Binding to KIX ([1]; BLI, KIX in the 3–16 μM range, negative control) | ß-Gal [2, 3] | ß-Gal [2, 4] | ß-Gal [2, 5] | Reporter activation (average value in %) [2] [%] | normalized value in % [2, 3] [%] | normalized value in % [2, 4] [%] | normalized value in % [2, 5] [%] | activation function (times) [2] [times] |
| --- | --- | --- | --- | --- | --- | --- | --- | --- | --- | --- |
| CC[C@H](C)[C@H](NC(=O)[C@H](CC(=O)O)NC(=O)[C@H](CO)NC(=O)[C@@H]1CCCN1C(=O)[C@H](CC(C)C)NC(=O)[C@@H](NC(=O)[C@H](CC(N)=O)NC(=O)[C@H](CO)NC(=O)CNC(=O)CCCC[C@@H]1SC[C@@H]2NC(=O)N[C@@H]21)[C@@H](C)CC)C(=O)N[C@@H](CCSC)C(=O)N[C@@H](CC(=O)O)C(=O)N[C@@H](Cc1ccccc1)C(=O)N[C@H](C(=O)N[C@@H](CC(C)C)C(=O)N[C@@H](CCCCN)C(=O)N[C@@H](CC(N)=O)C(=O)N[C@H](C(=O)O)[C@@H](C)O)C(C)C [MLL, reference compound] (Biotin-GSNILPSDIMDFVLKNT-OH) | 1170 ± 210 | – | – | – | – | – | – | – | – | – |
| CSCC[C@H](NC(=O)[C@H](CCC(=O)O)NC(=O)[C@@H](NC(=O)[C@@H](NC(=O)[C@H](Cc1c[nH]c2ccccc12)NC(=O)[C@H](CO)NC(=O)[C@@H]1CCCN1C(=O)[C@@H]1CCCN1C(=O)[C@H](CCC(=O)O)NC(=O)[C@H](CO)NC(=O)[C@H](CO)NC(=O)[C@H](CO)NC(=O)CNC(=O)CCCC[C@@H]1SC[C@@H]2NC(=O)N[C@@H]21)C(C)C)[C@@H](C)O)C(=O)N[C@@H](CC(C)C)C(=O)N[C@@H](CC(C)C)C(=O)N[C@@H](CCC(=O)O)C(=O)N[C@@H](CC(N)=O)C(=O)O [N-Myc] (Biotin-GSSSEPPSWVTEMLLEN-OH) | 880 ± 110 | – | – | – | – | – | – | – | – | – |
| CC(C)C[C@H](NC(=O)[C@H](CC(=O)O)NC(=O)[C@H](CC(=O)O)NC(=O)[C@H](CC(C)C)NC(=O)[C@H](CC(=O)O)NC(=O)[C@H](CC(C)C)NC(=O)[C@@H](NC(=O)[C@H](CC(=O)O)NC(=O)[C@H](Cc1c[nH]c2ccccc12)NC(=O)[C@H](CO)NC(=O)[C@@H](NC(=O)[C@H](CC(=O)O)NC(=O)CNC(=O)[C@H](CO)NC(=O)[C@H](CO)NC(=O)CNC(=O)CCCC[C@@H]1SC[C@@H]2NC(=O)N[C@@H]21)C(C)C)[C@@H](C)O)C(=O)N[C@@H](CC(=O)O)C(=O)O [Sp1-Ac] (Biotin-GSSGDVSWDTLDLDDLD-OH) | 9770 ± 1570 | – | – | – | – | – | – | – | – | – |
| CSCC[C@H](NC(=O)[C@H](CCC(=O)O)NC(=O)[C@H](CC(C)C)NC(=O)[C@H](CCC(N)=O)NC(=O)[C@@H](NC(=O)[C@H](CO)NC(=O)[C@H](CO)NC(=O)[C@H](CO)NC(=O)CNC(=O)CCCC[C@@H]1SC[C@@H]2NC(=O)N[C@@H]21)[C@@H](C)O)C(=O)N[C@H](C(=O)N[C@H](C(=O)N[C@@H](CCC(=O)O)C(=O)N[C@@H](CC(C)C)C(=O)N[C@@H](CC(C)C)C(=O)NCC(=O)O)[C@@H](C)O)C(C)C [c-Myc] (Biotin-GSSSTQLEMVTELLG-OH) | 2160 ± 1170 | – | – | – | – | – | – | – | – | – |
| Biotin—GSS- GQ VSWQ T LQLQ NLQ [native Sp1, biotinylated native Sp1 9aaTAD peptide, negative control for BLI, reference compound] | – | did not bind | – | – | – | – | – | – | – | – |
| c-Myc region 69-103: LexA hybrid construct of c-Myc region 69–103 without 9aaTAD (ELLPTPPLSPSRRSGLCSPSYVAVTPFSLRGDNDG; LexA fusion; UniProt P01106 69-103, looked up, fragment) | – | – | 74 | 83 | 71 | 29 | 27 | 31 | 26 | – |
| c-Myc region 69-108: LexA hybrid construct of c-Myc region 69–108 with 9aaTAD (ELLPTPPLSPSRRSGLCSPSYVAVTPFSLRGDNDGGGGSF; LexA fusion; UniProt P01106 69-108, looked up, fragment) | – | – | 255 | 241 | 242 | 90 | 93 | 88 | 89 | 3 |
| c-Myc region 98-108: LexA hybrid construct of alone-standing c-Myc 9aaTAD activation domain (RGDNDGGGGSF; also: LexA fusion; UniProt P01106 98-108, looked up, fragment) | – | – | 191 | 185 | 169 | 67 | 70 | 68 | 62 | 67 |
